According to patent US5556846A, “17-heterocyclyl-14beta-5alpha-androstane, androstene and androstadiene derivatives active on the cardiovascular system, and pharmaceutical compositions containing same” (Sigma-Tau Industrie Farmaceutiche Riunite S.p.A., priority 1992, dated 1996):

How the values were obtained:
[1] = molecular target: T1, Na^+,K^+ -ATPase (Homo sapiens, UniProt P05023); test: displacement of the specific 3H-ouabain binding from the purified Na+,K+-ATPase receptor
T1 construct: Na^+,K^+ -ATPase receptor purified according to Jorghensen; from tissue
From the text: (§1) To test the affinity for the receptor site of the Na^+,K^+ -ATPase and the inhibitory activity on the enzyme, the following tests were used: a) displacement of the specific ^3 H-ouabain binding from the Na^+,K^+ -ATPase receptor purified according to Jorghensen (Jorghensen P., BBA, 1974, 356, 36) and Erdmann (Erdmann E. et at., Arzneim.Forsh., 1984, 34, 1314): b) inhibition of the activity of the purified Na^+,K^+ -ATPase measured as % of hydrolysis of ^32 P-ATP in presence and in absence of the tested compound (Doucet A. et at., Am.

[2] = molecular target: T1, Na^+,K^+ -ATPase; test: inhibition of the activity of the purified Na+,K+-ATPase measured as % of hydrolysis of 32P-ATP; format: biochemical
From the text: as §1

[3] = test system: spontaneous hypertensive rats (MHS); test: blood pressure lowering in spontaneous hypertensive MHS rats (indirect tail-cuff, oral, ten days); format: in vivo, rat (Milan hypertensive strain; conditions: n = 7, 20 mg/Kg/os daily in METHOCEL 0.5% w/v; for SBP (systolic blood pressure): controls 172 +/- 2.0; for HR (heart rate): controls 328 +/- 8.6
From the text: To test the affinity for the receptor site of the Na^+,K^+ -ATPase and the inhibitory activity on the enzyme, the following tests were used: a) displacement of the specific ^3 H-ouabain binding from the Na^+,K^+ -ATPase receptor purified according to Jorghensen (Jorghensen P., BBA, 1974, 356, 36) and Erdmann (Erdmann E. et at., Arzneim.Forsh., 1984, 34, 1314): b) inhibition of the activity of the purified Na^+,K^+ -ATPase measured as % of hydrolysis of ^32 P-ATP in presence and in absence of the tested compound (Doucet A. et at., Am. […] The ability of these compounds to lower blood pressure was tested by using animal models with genetic arterial hypertension, in particular, spontaneous hypertensive rats of the Milan (MHS) (Bianchi G., Ferrari P., Barber B. The Milan Hypertensive strain. In Handbook of hypertension. Vol.4: Experimental and genetic models of hypertension. Ed. W. de jong-Elsevier Science Publishers B.V., 1984: 328-349).
The procedure adopted to test the antihypertensive activity of the compounds on the above mentioned model was the following: systolic blood pressure (SBP) and heart rate (HR) were measured by an indirect tail-cuff method in three-month old hypertensive rats (MHS) before beginning the treatment (basal values). The rats were then subdivided in two groups of at least 7 animals each, one receiving the compound the other, the control group, receiving only the vehicle. The compound, suspended in METHOCEL 0.5% (w/v), was administered daily by mouth, for ten days. SBP and HR were measured daily 6 and 24 hours after the treatment. At the end of the ten day treatment period, a washout period of at least two days was carried out, in order to check for how long the SBP was mantained low or the basal values were re-established.

[4] = literature statement; cited from earlier work
[5] = 3H-ouabain displacement, purified Na+,K+-ATPase, read-out: Binding ^3 H-Ouab. Displacement log IC50 (converted)
[6] = purified Na+,K+-ATPase, 32P-ATP hydrolysis, read-out: Inhibitory Activity log IC50 (converted)

For `C[C@]12CC[C@H](O)C[C@@H]1CC[C@@H]1[C@@H]2CC[C@]2(C)[C@@](O)(c3cccnc3)CC[C@]12O` [Comp. I - bl, 17β-(3-Pyridyl)-5α-androstane-3β,14β,17α-triol], the IC50 [1, 5] was 5.01 µM, the IC50 [2, 6] was 63.1 µM and the “SBP (systolic blood pressure)” value [3] was 156 +/- 3.5 mm Hg. For the same molecule, the “HR (heart rate)” value [3] was 318 +/- 9.5 beats/min.
For `C[C@]12CC[C@H](O)C[C@H]1CC[C@@H]1[C@@H]2CC[C@]2(C)[C@@](O)(C3=CC(=O)OC3)CC[C@]12O` [Ref. comp., 3β,14β,17α-trihydroxy-5β-card-20(22)-enolide, reference compound], the IC50 [1] was 1.26 µM, the IC50 [2] was 5.01 µM and the “SBP (systolic blood pressure)” value [3] was 174 +/- 2.1 mm Hg. The “HR (heart rate)” value [3] was 340 +/- 10.2 beats/min and the antihypertensive action [4] was “do not show antihypertensive action”.
For `C[C@]12CC[C@H]3[C@@H](CCC4=C[C@@H](O)CC[C@@]43C)[C@@]1(O)CC[C@]2(O)c1ccoc1` [Comp. I - ah, 17β-(3-Furyl)androst-4-ene-3β,14β,17α-triol], the IC50 [1, 5] was 3.16 µM, the IC50 [2, 6] was 50.1 µM and the “SBP (systolic blood pressure)” value [3] was 154 +/- 4.1 mm Hg. For the same molecule, the “HR (heart rate)” value [3] was 315 +/- 10.1 beats/min.
With `C[C@]12CC[C@H]3[C@@H](CC=C4C[C@@H](O)CC[C@@]43C)[C@@]1(O)CC[C@]2(O)c1ccco1` [Comp. I - bq, 17β-(2-Furyl)androst-5-ene-3β,14β,17α-triol] the IC50 [1, 5] was 5.01 µM and the IC50 [2, 6] was 79.4 µM.
For `C[C@]12CC[C@H]3[C@@H](CCC4=C[C@@H](OCC(N)CN)CC[C@@]43C)[C@@]1(O)CC[C@]2(O)c1ccoc1` (stereo partly drawn) [Comp. I - bw, 3β-((2RS)-2,3-Diaminopropoxy)-17β-(3-furyl)-androst-4-ene-14β,17α-diol], the IC50 [1, 5] was 3.98 µM and the IC50 [2, 6] was 100 µM.
Work on `C[C@]12CC[C@H]3[C@@H](CC=C4C[C@@H](O)CC[C@@]43C)[C@@]1(O)CC[C@]2(O)c1ccc(Cl)cc1` [Comp. I - bj, 17β-(4-Chlorophenyl)androst-5-ene-3β,14β,17α-triol] yielded an IC50 [1, 5] of 5.01 µM and an IC50 [2, 6] of 100 µM.
In the case of `C[C@]12CC[C@H]3[C@@H](CC=C4C[C@@H](O)CC[C@@]43C)[C@@]1(O)CC[C@]2(O)c1ccccc1` [Comp. I - ap, 17β-Phenylandrost-5-ene-3β,14β,17α-triol], the IC50 [1, 5] is reported as 7.94 µM and the IC50 [2, 6] is reported as 100 µM.
For `C[C@]12CC[C@H](O)C[C@@H]1CC[C@@H]1[C@@H]2CC[C@]2(C)[C@@](O)(c3ccccc3)CC[C@]12O` [Comp. I - ay, 17β-Phenyl-5α-androstane-3β,14β,17α-triol], the IC50 [1, 5] was 5.01 µM and the IC50 [2, 6] was 79.4 µM.
With `COc1ccc([C@@]2(O)CC[C@]3(O)[C@@H]4CCC5=C[C@@H](O)CC[C@]5(C)[C@H]4CC[C@]23C)cc1` [Comp. I - bi, 17β-(4-Methoxyphenyl)androst-4-ene-3β,14β,17α-triol] the IC50 [1, 5] was 3.16 µM and the IC50 [2, 6] was 39.8 µM.
In the case of `C[C@]12CC[C@H]3[C@@H](CCC4=C[C@@H](OCC(O)CO)CC[C@@]43C)[C@@]1(O)CC[C@]2(O)c1ccoc1` (stereo partly drawn) [Comp. I - bv, 3β-((2RS)-2,3-Dihydroxypropoxy)-17β-(3-furyl)androst-4-ene-14β,17α-diol], the IC50 [1, 5] is reported as 3.98 µM and the IC50 [2, 6] is reported as 79.4 µM.
For `C[C@]12CC[C@H]3[C@@H](CCC4=C[C@@H](OCCCN)CC[C@@]43C)[C@@]1(O)CC[C@]2(O)c1ccoc1` [Comp. I - aj, 3β-(3-Aminopropoxy)-17β-(3-furyl)androst-4-ene-14β,17α-diol], the IC50 [1, 5] was 1 µM, the IC50 [2, 6] was 12.6 µM and the “SBP (systolic blood pressure)” value [3] was 150 +/- 3.9 mm Hg. For the same molecule, the “HR (heart rate)” value [3] was 310 +/- 9.0 beats/min.
Molecule `C[C@]12CC[C@H]3[C@@H](CCC4=C[C@@H](OCCO)CC[C@@]43C)[C@@]1(O)CC[C@]2(O)c1ccoc1` [Comp. I - ai, 3β-(2-Hydroxyethoxy)-17β-(3-furyl)androst-4-ene-14β,17α-diol] has an IC50 [1, 5] of 5.01 µM and an IC50 [2, 6] of 39.8 µM.
`C[C@]12CC[C@H]3[C@@H](CC=C4C[C@@H](O)CC[C@@]43C)[C@@]1(O)CC[C@]2(O)c1nccs1` [Comp. I - bn, 17β-(2-Thiazolyl)androst-5-ene-3β,14β,17α-triol] showed an IC50 [1, 5] of 7.94 µM and an IC50 [2, 6] of 63.1 µM.
For `C[C@]12CC[C@H]3[C@@H](CCC4=C[C@@H](OCCCN)CC[C@@]43C)[C@@]1(O)CC[C@]2(O)c1ccccc1` [Comp. I - ae, 3β-(3-Aminopropoxy)-17β-phenylandrost-4-ene-14β,17α-diol], the “SBP (systolic blood pressure)” value [3] was 157 +/- 3.7 mm Hg and the “HR (heart rate)” value [3] was 312 +/- 9.4 beats/min.
`C[C@]12CC[C@H]3[C@@H](CCC4=C[C@@H](OCCN5CCCC5)CC[C@@]43C)[C@@]1(O)CC[C@]2(O)c1ccoc1` [Comp. I - br, 3β-(2-(1-Prrolidinyl)ethoxy)-17β-(3-furyl)androst-4-ene-14β,17α-diol] showed an IC50 [1, 5] of 1.58 µM and an IC50 [2, 6] of 25.1 µM.
For `C[C@]12CC[C@H]3[C@@H](CCC4=C[C@@H](O)CC[C@@]43C)[C@@]1(O)CC[C@]2(O)c1ccccc1` [Comp. I - ac, 17β-Phenylandrost-4-ene-3β,14β,17α-triol], the IC50 [1, 5] was 6.31 µM and the IC50 [2, 6] was 79.4 µM.
Molecule `C[C@]12CC[C@H]3[C@@H](CCC4=C[C@@H](OCCCNC(=N)N)CC[C@@]43C)[C@@]1(O)CC[C@]2(O)c1ccoc1` [Comp. I - bu] has an IC50 [1, 5] of 3.16 µM and an IC50 [2, 6] of 63.1 µM.
For `C[C@]12C=C[C@H](O)C[C@@H]1CC[C@@H]1[C@@H]2CC[C@]2(C)[C@@](O)(c3ccoc3)CC[C@]12O` [Comp. I - ab, 17β-(3-Furyl)-5α-androst-1-ene-3β,14β, 17α-triol], the IC50 [1, 5] was 3.98 µM and the IC50 [2, 6] was 31.6 µM.
For `CNCCO[C@@H]1C=C2CC[C@@H]3[C@H](CC[C@]4(C)[C@@](O)(c5ccoc5)CC[C@]34O)[C@@]2(C)CC1` [Comp. I - bt, 3β-(2-Methylaminoethoxy)-17β-(3-furyl)androst-4-ene-14β,17α-diol], the IC50 [1, 5] was 3.16 µM and the IC50 [2, 6] was 50.1 µM.
Work on `C[C@]12CC[C@H](O)C[C@@H]1CC[C@@H]1[C@@H]2CC[C@]2(C)[C@@](O)(c3ccsc3)CC[C@]12O` [Comp. I - bk, 17β-(3-Thienyl)-5α-androstane-3β,14β,17α-triol] yielded an IC50 [1, 5] of 7.94 µM and an IC50 [2, 6] of 63.1 µM.
Work on `C[C@]12CC[C@H]3[C@@H](CCC4=C[C@@H](SCCCN)CC[C@@]43C)[C@@]1(O)CC[C@]2(O)c1ccoc1` [Comp. I - by, 3β-(3-Aminopropylthio)-17β-(3-furyl)androst-4-ene-14β,17α-diol] yielded an IC50 [1, 5] of 1.58 µM and an IC50 [2, 6] of 12.6 µM.
For `CN(C)c1ccc([C@@]2(O)CC[C@]3(O)[C@@H]4CC=C5C[C@@H](O)CC[C@]5(C)[C@H]4CC[C@]23C)cc1` [Comp. I - bp, 17β-(4-(N,N-Dimethylaminophenyl))androst-5-ene-3β,14β,17α-triol], the IC50 [1, 5] was 6.31 µM and the IC50 [2, 6] was 50.1 µM.
Molecule `C[C@]12CC[C@H]3[C@@H](C=CC4=C[C@@H](O)CC[C@@]43C)[C@@]1(O)CC[C@]2(O)c1ccccc1` [Comp. I - au, 17β-Phenylandrosta-4,6-diene-3β,14β,17α-triol] has an IC50 [1, 5] of 5.01 µM and an IC50 [2, 6] of 31.6 µM.
